# Assay results reported in US10849874B2, “Use of composition for modulating angiogenesis” (National Sun Yat-sen University, priority 2015, dated 2020).
# What was measured:
# substance P = assay: Staining of itchy factor (substance P as marker) in atopic eczema; type: in vivo; conditions: balb/c mice, 50 μg/0.2 ml of excavatolide B in lotion (FIG. 9)
# Procedure: (§1) The balb/c mice were used in this experiment. The method for inducing atopic eczema comprised: (1) prepared 1% DNCB in olive oil/acetone (1:4); and (2) applied 1% DNCB on the shaved skins of the backs of balb/c mice at day 1, 3, 9, and 11, respectively. The balb/c mice were randomly divided into three groups: (A) the control group; (B) the atopic eczema group; and (C) the EXC-B treating group. The EXC-B treating group was treated with excavatolide B for seven consecutive days starting from day 15. Next, the present invention assessed the treating effect of EXC-B on atopic eczema by image analysis of the appearance.
# (§2) (b) Immunohistochemistry Staining:
# (§3) Mice were scarified by cervical dislocation. The skin tissues of the backs of the mice were collected, fixed with formalin buffer and embedded in paraffin. The tissue sections were treated with a graded alcohol bath after the paraffin-embedded tissue sections (2 μm) were deparaffinized by xylene. Next, the sections reacted with 0.3% hydrogen peroxide for 30 minutes to remove endogenous peroxidase. After the paraffin-embedded tissue sections reacted with a protein K in a 4% phosphate buffer for 20 minutes at 37° C., the paraffin-embedded tissue sections were washed with 4% phosphate buffer and then blocked with horse serum diluted by phosphate buffer for 1 hr. […]
# burn wound tissue = assay: HE staining of tissue section of burn wound; type: in vivo, Male Wistar rats; conditions: rats, lotion containing EXC-B; HE stained tissue section (FIG. 5)
# Procedure: Pathologic Tissue Slice and HE Staining
# After the rats had suffered injuries for specific days according to experimental design they were humanely sacrificed, PBS containing heparin (0.2 U/ml) at 4 degrees Celsius was injected into aorta until PBS carrying no color flowed out of the vein. 4% paraformaldehyde at 4° C. was injected to fasten it, the wounded area was carefully taken out by surgical blades and immersed into 10% Formalin fixing solution to be reserved at 4° C. and fixed for several days. Next, the fixed tissue was dehydrated and wax infiltrated. The skin tissue was dehydrated and wax infiltrated by utilizing a tissue automatic processing system. Afterwards, the tissue was embedded by a paraffin embedding machine into paraffin blocks. After tissue blocks were sliced through a paraffin microtome, tissue slices were stained by using hematoxylin and eosin stain. Upon completion, tissue slices were mounted by micro-mount, and completed sample slices then were placed on an optical microscope for observation, the sample slices were further photographed and recorded by the digital image capture system.
# [1] = test system: vascular endothelial growth factor (VEGF); assay: Staining of VEGF expression level in tissue of burn wound; type: in vivo, rat; conditions: rats, lotion containing EXC-B
# Procedure: as §2
# (§4) Mice were scarified by cervical dislocation. The skin tissues of the backs of the mice were collected, fixed with formalin buffer and embedded in paraffin. The tissue sections were treated with a graded alcohol bath after the paraffin-embedded tissue sections (2 μm) were deparaffinized by xylene. Next, the sections reacted with 0.3% hydrogen peroxide for 30 minutes to remove endogenous peroxidase. After the paraffin-embedded tissue sections reacted with a protein K in a 4% phosphate buffer for 20 minutes at 37° C., the paraffin-embedded tissue sections were washed with 4% phosphate buffer and then blocked with horse serum diluted by phosphate buffer for 1 hr. Next, the sections were incubated with a diluted target protein antibody for 18-20 hr at 4° C. in a humid environment. After recycling the antibody, the horse serum was reused to incubate the sections for 1 hr and the sections subsequently reacted with an added corresponding secondary antibody for 90 minutes. After the sections reacted with ABC kit, DBA was used to produce color reaction, and the sections were air-dried with a graded alcohol bath and covered with a cover glass. The completed sample section was placed in an optical microscope (DM 6000, Leica Inc, Germany) and a stereomicroscope (APO Z16, Leica Inc. Singapore). […]
# diabetic incised wound = assay: Healing of diabetic incised wound (wound appearance and wound area); type: in vivo, Male Wistar rats; conditions: STZ-diabetic rats
# Procedure: (a) Preparation of Animal and Operation of Incised Wound in Diabetic Rat:
# Male Wistar rats (400-450 g) were used in this experiment. The induction of diabetes was performed by using a citrate buffer solution to prepare streptozotocin (STZ, catalog No. 85882 FLUKA, Sigma, St. Louis, Mo., USA). The rats were anesthetized by 2.5% isoflurane and administered with STZ (60 mg/kg) by tail intravenous injection. A week after STZ injection, those rats with blood glucose levels more than 250 mg/dl were identified as successfully diabetic inducted rats. […] After the surgery of the incision of full-layered skins, the rats were randomly divided into two groups: (1) diabetic incised wound group (administered a normal lotion); and (2) EXC-B treating group (administered a lotion containing excavatolide B). The EXC-B treating group was treated with 1 mg/0.2 ml of excavatolide B in the lotion daily.
# (§5) (c) Wound Observation and Area Calculation:
# After being burned, the rats were anesthetized and then taken pictures according to experimentally designed dates. A series of pictures were taken by a digital camera (Coolpix P6000, Nikon, Japan) under the same condition (the diaphragm is 7.2, and the camera shutter is 1/60). A digital image capture system software (Diagnostic Instruments, Inc., Sterling Heights, Mich., U.S.A.) was used to analyze the captured wound pictures to calculate the wound area. […]
# burn wound = assay: Healing of burn wound (wound appearance and wound area); type: in vivo, Male Wistar rats; conditions: rats; for wound healing depended on time (burned restoring area, area under the curve) compared to burn wound group and lotion treating group: day 0-27 (FIG. 4)
# Procedure: (b) Preparation of Animal and Operation of Burn Wound:
# Male Wistar rats (400-450 g) were used in this experiment. After the rats were anesthetized by 2.5% isoflurane, the present invention selected four burned locations (two locations beneath the scapula of the rat and two locations in the midline of the lumbar spine) on the back of the anesthetized rat. The skins of the burned locations were tightened, and a copper block (2×2 cm) which was preheated to 175° C. by a dry bath was used to closely touch these skins of the locations for 10 seconds to form burn wounds of full-layered skins. The copper block was appropriately moved in order to form a quadrilateral form of burn wound during the burning process. Attention was paid not to add extra pressure on the copper block in order to ensure the same burn pressure each time during the burning process.
# as §5
# After being burned, the rats were anesthetized and then taken pictures according to experimentally designed dates. A series of pictures were taken by a digital camera (Coolpix P6000, Nikon, Japan) under the same condition (the diaphragm is 7.2, and the camera shutter is 1/60). A digital image capture system software (Diagnostic Instruments, Inc., Sterling Heights, Mich., U.S.A.) was used to analyze the captured wound pictures to calculate the wound area. The data of the wound area at each observation point were respectively presented at percentage of the wound area relative to day zero.
# atopic eczema = assay: DNCB-induced atopic eczema model, image analysis of skin appearance; type: in vivo; conditions: balb/c mice
# Procedure: (a) Preparation of Animal and Induction of Atopic Eczema:
# as §1
# [2] = test system: angiogenesis (blood vessels marked by vWF); assay: Staining of angiogenesis (blood vessels marked by vWF) in tissue of burn wound; type: in vivo, rat; conditions: rats, lotion containing EXC-B, versus silver sulphadiazine treating group (FIG. 6)
# Procedure: as §2, §4
# VEGF = assay: Staining of VEGF expression level in tissue of atopic eczema; type: in vivo; conditions: balb/c mice, 50 μg/0.2 ml of excavatolide B in lotion (FIG. 8)
# Procedure: as §1, §2, §3
# filaggrin = assay: Staining of regulating factor for skin barrier function (filaggrin as marker) in atopic eczema; type: in vivo; conditions: balb/c mice, 50 μg/0.2 ml of excavatolide B in lotion (FIG. 10)
# Procedure: as §1, §2, §3
substance,measurement,setting,value
excavatolide B [EXC-B],itchy factors (the substance P as the marker) in the tissue of the skin,substance P,significantly inhibited
same,"tissue changes induced by burn injury (thickening of epithelial layer, damages to dermis, infiltration of neutrophils)",burn wound tissue,significantly improved
same,expression level of the VEGF of the burned tissue,[1]; versus lotion treating group (FIG. 6),substantially increased
same,treating effect on VEGF expression of the burned tissue relative to silver sulphadiazine,[1]; versus silver sulphadiazine treating group (FIG. 6),better than the effect of the silver sulphadiazine
same,"wound healing (appearance, image analysis) compared to the diabetic incised wound group","diabetic incised wound; 1 mg/0.2 ml of excavatolide B in lotion daily, topical, appearance at 4-25 days after incised injury (FIG. 1)",significantly improved
same,wound healing (wound restoring area depended on time) compared to the diabetic incised wound group,"diabetic incised wound; 1 mg/0.2 ml of excavatolide B in lotion, at day 7, 21, and 28 (FIG. 2)",significantly improved
same,"wound healing depended on time (burned restoring area, area under the curve) compared to burn wound group and lotion treating group",burn wound; 10 μg EXC-B treating group,significantly accelerate wound healing
same,"wound healing (appearance, image analysis) after burn injury","burn wound; 10 μg/0.2 ml of EXC-B in lotion, appearance at 2-24 days after burn injury (FIG. 3 K-O)",significantly improved
same,"wound healing depended on time (burned restoring area, area under the curve) compared to burn wound group and lotion treating group",burn wound; 50 μg EXC-B treating group,significantly accelerate wound healing
same,"wound healing (appearance, image analysis) after burn injury","burn wound; 50 μg/0.2 ml of EXC-B in lotion, appearance at 2-24 days after burn injury (FIG. 3 P-T)",significantly improved
same,"side effects of the clinical treatment, such as skin dryness and albinism",atopic eczema; 50 μg/0.2 ml of excavatolide B in lotion (FIG. 7),no side effects of the clinical treatment were observed
same,"condition of the treated skin (inflammations, scratched wounds)","atopic eczema; 50 μg/0.2 ml of excavatolide B in lotion, seven consecutive days from day 15 (FIG. 7)",significantly better than the skin of the atopic eczema
same,rate of vascular proliferation (blood vessels marked by vWF),[2],higher than that of the silver sulphadiazine treating group
same,increased expression of the VEGF in the tissue of atopic eczema,VEGF,inhibited
same,decrease of the regulating factor (filaggrin as the marker) for skin barrier function,filaggrin,recovered
